Assay results reported in PubChem BioAssay AID720512 (Broad Institute, 2013).
The source made the active and inactive calls. The rule behind the calls is not given here.

Molecular target: Toxin B (TcdB) glycohydrolase, Clostridioides difficile 630
Assay: TcdB glycohydrolase inhibitors, dose response, biochemical, cherry-pick, plate reader (AID 720512)
Settings: recombinant TcdB glycohydrolase activity; for activity change, negative = inhibition: at 19.5 µM (top of the series)

SMILES | activity change, negative = inhibition | AC50
COc1ccc(NC(=O)CN(C)C(=O)c2cccc(NS(=O)(=O)c3ccc(Br)cc3)c2)cc1 | inactive | –
Cc1noc(C)c1NC(=O)N(C)C[C@@H]1Oc2ccc(NC(=O)C3CCCCC3)cc2C(=O)N([C@@H](C)CO)C[C@H]1C | inactive | –
O=c1c2ccc(Cl)cc2[nH]c(=S)n1-c1cccnc1 | inactive | –
CCCS(=O)(=O)NC(=O)C1(C)CCN(C(=O)c2ccco2)C1 (centres undefined) | inactive | –
CCN(CC)CCNC(=O)C1CCN(S(=O)(=O)c2c(C)noc2/C=C/c2ccccc2F)CC1 | inactive | –
CCOc1cc(NC(=S)NCC2CCCO2)c(OCC)cc1NC(=O)c1ccc(F)cc1 (centres undefined) | inactive | –
Nc1cc(N)cc(C(=O)OCC(=O)Nc2cc(S(=O)(=O)N3CCCCC3)ccc2Cl)c1 | inactive | –
CCCC(=O)Nc1ccc2c(c1)OC[C@H](C)N(CC1CCCC1)C[C@H](C)[C@@H](OC)CN(C)C2=O | inactive | –
CCC(C)NC(=O)CSc1nc2cc(S(=O)(=O)N3CCOCC3)ccc2n1CC (centres undefined) | inactive | –
C[C@H](NC(=O)c1cc2c(cn1)[nH]c1ccccc12)C(=O)O | inactive | –
O=C(CCn1cnc2ccccc21)N/N=C/c1ccc(O)cc1 | inactive | –
O=C(Nc1cc(S(=O)(=O)N2CCOCC2)ccc1N1CCOCC1)c1ccccc1Cl | inactive | –
COc1ccc(/C=C/c2onc(C)c2S(=O)(=O)N2CCC(C(=O)N3CCCCCC3)CC2)cc1 | inactive | –
O=C(Nc1sc2c(c1C(=O)O)CCCC2)c1ccc(Cl)cc1 | inactive | –
COc1ccccc1C(=O)Nc1cccc(Oc2c(F)c(F)c(F)c(F)c2F)c1 | inactive | –
S=c1nc(-c2ccc(Cl)cc2)[nH][nH]1 | inactive | –
CCCNC(=O)N1CC[C@@H]2[C@@H](CO)N(C)c3ccc(-c4ccccc4)cc3[C@@H]21 | – | > 39 µM (inactive)
COc1ccc(C2=NS(=O)(=O)N(C)C(C(=O)NCc3ccccc3)=C2)cc1OC | inactive | –
COc1ccc(NC(=O)Cn2cnc3sc(C)c(S(=O)(=O)N4CCOCC4)c3c2=O)c(OC)c1 | inactive | –
Cc1cccc(-n2nnc(C(=O)NCc3ccccc3Cl)c2N)c1 | inactive | –
c1ccc(OCCSc2nnc3sc4ccccc4n23)cc1 | – | > 39 µM (inactive)
COc1ccc(NC(=O)C2CC(=O)N(c3ccccc3F)C2)cc1S(=O)(=O)N1CCCCC1 (centres undefined) | inactive | –
O=C(C[C@H]1CC[C@H]2[C@@H](COC[C@H](O)CN2C(=O)Nc2ccc(Cl)c(Cl)c2)O1)NCc1ccncc1 | inactive | –

SMILES | activity change, negative = inhibition | AC50
NS(=O)(=O)c1ccc(CCNC(=O)c2ccc(CS(=O)(=O)c3ccc(Br)cc3)o2)cc1 | inactive | –
C[C@@H]1C=C[C@](Cc2ccccc2)(C(=O)NCC2CC2)N1C(=O)c1ccccc1 | inactive | –
CC(C)NC(=O)N1CC[C@@H]2[C@H]1c1cc(-c3ccccc3)ccc1N(C)[C@H]2CO | – | > 39 µM (inactive)
O=C(COC(=O)c1ccc(F)cc1F)c1ccc[nH]1 | inactive | –
O=C(N/N=C/c1ccccn1)c1ccc([N+](=O)[O-])cc1Cl | inactive | –
C=CCc1ccc(O)c(-c2ccc(O)c(CC=C)c2)c1 | inactive | –
COc1ccc(-c2ccc3c(c2)[C@@H]2[C@@H](CCN2C(=O)CN2CCOCC2)[C@H](CO)N3)cc1 | inactive | –
Cc1nc(-c2ccccn2)nc(SCC(=O)c2ccc(F)cc2)c1Cl | inactive | –
O=C1Cc2cc(S(=O)(=O)NCc3ccccc3Cl)cc3c2N1CCC3 | inactive | –
COc1ccc(/C=N/n2c(-c3cc(C)[nH]n3)n[nH]c2=S)cc1OC | inactive | –
CC(C)c1cc(CN2CCN(Cc3ccc(F)c(F)c3)C(CCO)C2)[nH]n1 (centres undefined) | inactive | –
CS(=O)(=O)N(CC(=O)Nc1ccc(S(=O)(=O)N2CCOCC2)cc1)c1ccccc1Br | inactive | –
CCc1ccc(NC(=O)C2=CC(c3ccc(OC)cc3)=NS(=O)(=O)N2C)cc1 | inactive | –
CCN(C(=O)COC(=O)c1cccnc1SC)C1CCCCC1 | inactive | –
Cc1ccc(C(=O)NCCn2cc(SCC(=O)Nc3cc(C)on3)c3ccccc32)cc1 | inactive | –
Clc1cccc(-c2ccc3ncnc(NCc4cccs4)c3c2)c1 | inactive | –
O=C(C[C@H]1CC[C@H]2[C@@H](COC[C@@H](O)CN2Cc2ccccc2)O1)NCCc1ccccc1 | inactive | –
CC(C)CNC(=O)c1c(F)c(F)c(F)c(F)c1F | inactive | –
Cc1ccccc1C(C(=O)NC1CCCCC1)N(C(=O)c1ccccn1)c1cccnc1 (centres undefined) | inactive | –
COc1cccc(C(=O)OCC(=O)Nc2cc(C)on2)c1OC | inactive | –
O=C(c1ccc([N+](=O)[O-])cc1)N1CCN(c2cccc3[nH]ccc23)CC1 | inactive | –
COc1ccc(-c2ccc3c(c2)[C@H]2[C@H](CCN2C(=O)C2CC2)[C@@H](CO)N3C)cc1 | – | > 39 µM (inactive)
CC1(C)OC2C(O1)[C@@H](CO)O[C@H]2n1cnc2c(N)ncnc21 (some centres undefined) | inactive | –

SMILES | activity change, negative = inhibition | AC50
Cc1ccc(S(=O)(=O)N2CCC(C(=O)OCC(=O)NCCc3ccccc3)CC2)cc1C | inactive | –
C/C(=N\Nc1cc(N2CCOCC2)ncn1)c1ccc(O)cc1 | – | > 39 µM (inactive)
C/C(=N\Nc1ccc([N+](=O)[O-])cc1)c1cccc(N)c1 | inactive | –
CCc1cc(/C(Cc2ccccn2)=N\O)c(O)cc1O | inactive | –
CCCNC(=O)Nc1ccc2c(c1)C(=O)N(C)[C@H]1CC[C@H](CC(=O)NC3CCC3)O[C@@H]1CO2 | inactive | –
CC(=O)N1CCN(c2ccc(S(C)(=O)=O)cc2[N+](=O)[O-])CC1 | inactive | –
O=C(OCC(=O)N1CCCc2ccccc21)c1ccc(C(F)(F)F)cc1 | inactive | –
CC(C)=CCOc1c2occc2cc2ccc(=O)oc12 | inactive | –
CNC(=O)C[C@@H]1CC[C@@H]2[C@H](COc3ccc(NS(=O)(=O)c4ccccc4C)cc3C(=O)N2C)O1 | inactive | –
Cc1c(CNC(=O)c2c([N+](=O)[O-])cnn2C)cnn1C | inactive | –
CC(C)(C)c1cc(Cl)c(O)c(NC(=S)NC(=O)c2cccnc2)c1 | inactive | –
NC(=O)C1(Nc2ccc(-c3ccc(Br)cc3)cc2)CCCC1 | inactive | –
CCOC(=O)c1ccc2ncc(-c3ccccc3)nc2c1 | inactive | –
Cc1cccn2c(=S)[nH]nc12 | inactive | –
O=C(CC(=O)N/N=C/c1ccc(O)cc1)N/N=C/c1ccc(O)cc1 | inactive | –
Cc1scc(C(=O)N2CCN(c3ccc(Cl)cc3)CC2)c1C | inactive | –
O=C(Nc1ccccc1F)N(Cc1ccc(F)cc1)Cc1nc2ccccc2c(=O)[nH]1 | inactive | –
COc1cc(/C=N/Nc2ccccn2)ccc1O | inactive | –
Cc1cc(N/N=C/c2ccc(O)cc2O)nc(N2CCOCC2)n1 | inactive | –
COc1cc(/C=C(/NC(=O)c2ccccc2)C(=O)Nc2ccc(O)cc2)c([N+](=O)[O-])cc1OC | inactive | –
O=c1c2ccccc2nc(/C=C/c2ccc(O)cc2)n1-c1ccccc1O | inactive | –
CN1C=CC(=CC=C2C=CC(=O)C=C2)C=C1 | inactive | –
COc1cc2oc3ccc(C#Cc4ccccn4)cc3c(=O)c2cc1OC | inactive | –

SMILES | activity change, negative = inhibition | AC50
O=C(C[C@@H]1CC[C@@H]2[C@H](COC[C@H](O)CN2C(=O)c2ccccn2)O1)NC1CCC1 | inactive | –
COCCNc1cc(N)c([N+](=O)[O-])cc1[N+](=O)[O-] | inactive | –
O=C(NNc1nc2c(F)cccc2s1)C1COc2ccccc2O1 (centres undefined) | inactive | –
COc1cc(OC)c(OC)cc1/C=C/c1ccnc2ccccc12 | inactive | –
CN1CCN(/N=C/c2c[nH]c3ccccc23)CC1 | inactive | –
CC[C@H](C)[C@H]1CNC(=S)N1CC1CCN(CCCC2CCCC2)CC1 | inactive | –
Nc1cc(=O)[nH]c(SCC(=O)Nc2ccccc2Sc2ccc(Cl)cc2)n1 | inactive | –
O=C(C[C@@H]1CC[C@H]2[C@@H](COC[C@@H](O)CN2Cc2ccc(Oc3ccccc3)cc2)O1)Nc1nccs1 | inactive | –
CCCNC(=O)C1CC(=O)N(c2ccc(OCC)cc2)C1 (centres undefined) | inactive | –
C/C(CCc1ccccc1)=N\NC(=O)C1C2CCCCC21 (centres undefined) | inactive | –
CS(=O)(=O)N1CCc2cc(C(=O)Nc3ccc(O)cc3)ccc21 | inactive | –
C/C(=N\OCC(=O)Nc1nc2ccccc2s1)c1ccccc1 | inactive | –
CN(c1ccc(O)cc1)c1nc(-c2cccnc2)cs1 | inactive | –
CCOc1ccc(S(=O)(=O)NCCC(=O)NCc2ccccn2)cc1 | inactive | –
O=c1ccc2cc(O)c(O)cc2o1 | inactive | –
CC1C(c2ccc3c(c2)OCO3)c2cc3c(cc2OC1N1CCOCC1)OCO3 (centres undefined) | inactive | –
COc1ccc(SC[C@H](C)CN2CC[C@H](NC(=O)OCc3ccccc3)CCC2=O)cc1 | inactive | –
Nc1ccc(-c2nc3ccc(N)cc3o2)cc1 | inactive | –
Fc1cccc(NC(=S)NNc2c3ccccc3nc3ccccc23)c1 | inactive | –
Cc1ccc2c(C)c3ccc4ccccc4c3c[n+]2c1 | inactive | –
